Laboratory results as given in US20070128217A1 (priority 2003, published 2007).

Tests used:
[1] = tested on: antibodies in sera from SARS patients (sera 1a, 1b, 2, 6, 37, 62, London, SARS-yellow, SARS-green); assay type: binding, human; set-up: Binding of serum 6 to linear peptides of protein X1 of SARS-CoV Urbani / Binding of serum 37 to linear peptides of protein X1 of SARS-CoV Urbani / Binding of serum 6 to looped/cyclic peptide (PEPSCAN-ELISA) / Binding of serum 37 to looped/cyclic peptide (PEPSCAN-ELISA) / Binding of serum 37 to looped/cyclic peptides of protein X1 of SARS-CoV Urbani / Binding of serum 6 to linear peptides of protein X2 / Binding of serum 37 to linear peptides of protein X2 / Binding of serum 37 to looped/cyclic peptides of protein X2 of SARS-CoV Urbani / Binding of serum 6 to linear peptides of protein M of SARS-CoV Urbani / Binding of serum 37 to linear peptides of protein M of SARS-CoV Urbani / Binding of serum 6 to looped/cyclic peptides of protein M of SARS-CoV Urbani / Binding of serum 37 to looped/cyclic peptides of protein M of SARS-CoV Urbani / Binding of serum 6 to linear peptides of protein X3 of SARS-CoV Urbani / Binding of serum 37 to linear peptides of protein X3 of SARS-CoV Urbani / Binding of serum 37 to looped/cyclic peptides of protein X3 of SARS-CoV Urbani / Binding of serum 6 to linear peptides of protein X4 of SARS-CoV Urbani / Binding of serum 37 to linear peptides of protein X4 of SARS-CoV Urbani / Binding of serum 37 to looped/cyclic peptides of protein X4 of SARS-CoV Urbani / Binding of serum 6 to linear peptides of protein X5 of SARS-CoV Urbani / Binding of serum 37 to linear peptides of protein X5 of SARS-CoV Urbani / Binding of serum 37 to looped/cyclic peptides of protein X5 of SARS-CoV Urbani / Binding of serum 6 to linear peptides of protein N of SARS-CoV Urbani / Binding of serum 37 to linear peptides of protein N of SARS-CoV Urbani / Binding of serum 6 to linear peptide (PEPSCAN-ELISA) / Binding of serum 1a to looped/cyclic peptides of protein N of SARS-CoV Urbani / Binding of serum 1b to looped/cyclic peptides of protein N of SARS-CoV Urbani / Binding of serum 2 to looped/cyclic peptides of protein N of SARS-CoV Urbani / Binding of serum 6 to looped/cyclic peptides of protein N of SARS-CoV Urbani / Binding of serum 37 to looped/cyclic peptides of protein N of SARS-CoV Urbani / Binding of serum 62 to looped/cyclic peptides of protein N of SARS-CoV Urbani / Binding of serum London to looped/cyclic peptides of protein N of SARS-CoV Urbani / Binding of serum SARS-green to looped/cyclic peptides of protein N of SARS-CoV Urbani: unit not given here
[2] = tested on: control sera (pooled serum of ten healthy LUMC hospital workers; commercial negative donor pooled serum from the Dutch bloodbank); assay type: binding, human; set-up: Binding of Control serum LUMC to linear peptides / Binding of Control serum Blood-bank to linear peptides / Binding of Control serum LUMC to looped peptides / Binding of Control Serum Blood-Bank to Looped peptides / Binding of Control serum LUMC to linear peptides of the protein M of SARS-CoV Urbani / Binding of Control serum Blood-bank to linear peptides of the protein M of SARS-CoV Urbani / Binding of Control serum LUMC to looped peptides of the protein M of SARS-CoV Urbani / Binding of Control Serum Blood-Bank to Looped peptides of the protein M of SARS-CoV Urbani: unit not given here
[3] = tested on: rabbit serum obtained by immunizing a rabbit with the SARS-CoV strain Frankfurt 1; assay type: binding; set-up: Binding of a rabbit serum to linear peptides / Binding of a rabbit serum to looped peptides / Rabbit serum linear peptides / Rabbit serum looped peptides / Binding of a rabbit serum to linear peptides of protein N of SARS-CoV Urbani (Rabbit serum linear peptides) / Binding of a rabbit serum to looped/cyclic peptides of protein N of SARS-CoV Urbani (Rabbit serum looped peptides): unit not given here
[4] = tested on: recombinant human anti-SARS-CoV antibody 03-018; assay type: binding; set-up: Binding of antibody 03-018 to linear peptides of the N protein of SARS-CoV Urbani / Binding of antibody 03-018 to looped/cyclic peptides of the N protein of SARS-CoV Urbani: unit not given here

Sequence | Binding of serum 1a to linear peptide (PEPSCAN-ELISA) [1] | Binding of serum 1a to looped/cyclic peptides of protein N of SARS-CoV Urbani [1] | Binding of serum 1b to linear peptide (PEPSCAN-ELISA) [1] | Binding of serum 1b to looped/cyclic peptides of protein N of SARS-CoV Urbani [1] | Binding of serum 2 to linear peptide (PEPSCAN-ELISA) [1] | Binding of serum 2 to looped/cyclic peptides of protein N of SARS-CoV Urbani [1] | Binding of serum 6 to looped/cyclic peptides of protein N of SARS-CoV Urbani [1] | Binding of serum 37 to looped/cyclic peptides of protein N of SARS-CoV Urbani [1] | Binding of serum 62 to looped/cyclic peptides of protein N of SARS-CoV Urbani [1] | Binding of serum London to looped/cyclic peptides of protein N of SARS-CoV Urbani [1] | Binding of serum SARS-green to looped/cyclic peptides of protein N of SARS-CoV Urbani [1] | Binding of serum SARS-yellow to looped/cyclic peptides of protein N of SARS-CoV Urbani [1] | Binding of Control Serum Blood-Bank to Looped peptides [2] | Binding of Control serum Blood-bank to linear peptides [2] | Binding of Control serum LUMC to linear peptides [2] | Binding of Control serum LUMC to looped peptides [2] | Binding of a rabbit serum to linear peptides of protein N of SARS-CoV Urbani (Rabbit serum linear peptides) [3] | Binding of a rabbit serum to looped/cyclic peptides of protein N of SARS-CoV Urbani (Rabbit serum looped peptides) [3] | Binding of antibody 03-018 to linear peptides of the N protein of SARS-CoV Urbani [4] | Binding of antibody 03-018 to looped/cyclic peptides of the N protein of SARS-CoV Urbani [4] | further results
SGKGQQQQGQTVTKK | 0.3 | 0.3 | 0.1 | 0.2 | 0.2 | 0.3 | 0.3 | 0.6 | 0.5 | 0.4 | 0.2 | 0.3 | 0.6 | 1.0 | 1.1 | 0.6 | 0.2 | 0.4 | 0.1 | 0.2 | Binding of serum 6 to linear peptide (PEPSCAN-ELISA) [1]: 0.4; Binding of serum 37 to linear peptide (PEPSCAN-ELISA) [1]: 0.7; Binding of serum 62 to linear peptide (PEPSCAN-ELISA) [1]: 0.9; Binding of serum London to linear peptide (PEPSCAN-ELISA) [1]: 0.6; Binding of serum SARS-green to linear peptide (PEPSCAN-ELISA) [1]: 0.5; Binding of serum SARS-yellow to linear peptide (PEPSCAN-ELISA) [1]: 0.7
SGPDDQIGYYRRATR |  | 0.4 |  | 0.3 |  | 0.5 | 0.4 | 0.8 | 0.7 | 0.5 | 0.5 | 0.7 | 0.8 | 0.8 | 0.7 | 0.9 |  |  | 0.1 | 0.3 | Binding of serum 1a to linear peptides of protein N of SARS-CoV Urbani [1]: 0.2; Binding of serum 1b to linear peptides of protein N of SARS-CoV Urbani [1]: 0.1; Binding of serum 2 to linear peptides of protein N of SARS-CoV Urbani [1]: 0.2; Binding of serum 6 to linear peptides of protein N of SARS-CoV Urbani [1]: 0.2; Binding of serum 37 to linear peptides of protein N of SARS-CoV Urbani [1]: 0.6; Binding of serum 62 to linear peptides of protein N of SARS-CoV Urbani [1]: 0.6; Binding of serum London to linear peptides of protein N of SARS-CoV Urbani [1]: 0.4; Binding of serum SARS-green to linear peptides of protein N of SARS-CoV Urbani [1]: 0.4; Binding of serum SARS-yellow to linear peptides of protein N of SARS-CoV Urbani [1]: 0.6; Recognition of the peptide by the rabbit serum [3]: recognized
SGTWLTYHGAIKLDD |  | 0.8 |  | 0.5 |  | 0.7 | 0.4 | 1.0 | 1.2 | 0.8 | 1.8 | 1.6 |  |  |  |  | 0.1 | 0.5 | 0.1 | 0.2 | Binding of serum 1a to linear peptides of protein N of SARS-CoV Urbani [1]: 0.2; Binding of serum 1b to linear peptides of protein N of SARS-CoV Urbani [1]: 0.1; Binding of serum 2 to linear peptides of protein N of SARS-CoV Urbani [1]: 0.1; Binding of serum 6 to linear peptides of protein N of SARS-CoV Urbani [1]: 0.1; Binding of serum 37 to linear peptides of protein N of SARS-CoV Urbani [1]: 0.7; Binding of serum 62 to linear peptides of protein N of SARS-CoV Urbani [1]: 0.5; Binding of serum London to linear peptides of protein N of SARS-CoV Urbani [1]: 0.6; Binding of serum SARS-green to linear peptides of protein N of SARS-CoV Urbani [1]: 0.5; Binding of serum SARS-yellow to linear peptides of protein N of SARS-CoV Urbani [1]: 0.6; Control Serum Blood-Bank Looped peptides [2]: 1.0; Control serum Blood-bank linear peptides [2]: 0.5; Control serum LUMC linear peptides [2]: 0.5; Control serum LUMC looped peptides [2]: 0.8
SKVSGKGQQQQGQTV | 0.2 | 0.4 | 0.1 | 0.2 | 0.3 | 0.7 | 0.4 | 0.6 | 0.6 | 0.8 | 0.5 | 0.6 | 0.8 | 0.6 | 0.7 | 0.8 | 0.1 | 0.6 | 0.1 | 0.2 | Binding of serum 6 to linear peptide (PEPSCAN-ELISA) [1]: 0.1; Binding of serum 37 to linear peptide (PEPSCAN-ELISA) [1]: 0.5; Binding of serum 62 to linear peptide (PEPSCAN-ELISA) [1]: 0.6; Binding of serum London to linear peptide (PEPSCAN-ELISA) [1]: 0.5; Binding of serum SARS-green to linear peptide (PEPSCAN-ELISA) [1]: 0.3; Binding of serum SARS-yellow to linear peptide (PEPSCAN-ELISA) [1]: 0.7
